Results reported in ChEMBL document CHEMBL1201862, “PubChem BioAssay data set” (2004).
The source made the active and inactive calls.

Columns and labels:
[1] = tested on: BJ; assay: cells; assay type: functional, cell-based; conditions: Homo sapiens
[2] = DRD fibroblast viability loss – cell-based, non-viral oncogenic, luminescence, dose response (AID 1934); assay type: functional; conditions: Homo sapiens
[3] = tested on: BJ; assay: BJ-TERT fibroblast viability loss – cell-based, RAS-independent, luminescence, dose response (AID 1933); assay type: functional; conditions: Homo sapiens
[4] = tested on: BJ; assay: growth inhibition of engineered Ras-driven BJ cells – cell-based, alamar blue fluorescence, cherrypicked samples, dose response (AID 2631); assay type: functional; conditions: Homo sapiens;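 also: confirmatory dose-response assay in RAS-dependent BJ fibroblasts engineered with TERT, LT and ST, with cytotoxicity read by fluorescence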
[5] = Luminescence Cell-Based Dose Retest to Confirm Inhibitors of Cancer Stem Cells. [Related pubchem assays (depositor defined):AID2717, AID2721]; assay type: functional; conditions: Homo sapiens
[6] = HEK-293T viability loss after treatment – luminescence, T-cell screen hits, cytotoxicity control for TCR NF-kB inhibitor project, dose response (AID 489026); assay type: functional, cell-based;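 also: cells exposed to compound about 14 hours before the viability readout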
[7] = viability loss of HMLE_sh_eGFP cells – cell-based, luminescence, counter-screen for HMLE_sh_ECad selective toxicity project, dose response (AID 463074); assay type: functional, Homo sapiens;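 also: HMLE human mammary epithelial cells expressing control shRNA against eGFP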
[8] = biological target: T1, Tyrosine-protein phosphatase non-receptor type 22 (Homo sapiens, UniProt Q9Y2R2); assay type: functional
T1 sequence (Q9Y2R2 whole entry): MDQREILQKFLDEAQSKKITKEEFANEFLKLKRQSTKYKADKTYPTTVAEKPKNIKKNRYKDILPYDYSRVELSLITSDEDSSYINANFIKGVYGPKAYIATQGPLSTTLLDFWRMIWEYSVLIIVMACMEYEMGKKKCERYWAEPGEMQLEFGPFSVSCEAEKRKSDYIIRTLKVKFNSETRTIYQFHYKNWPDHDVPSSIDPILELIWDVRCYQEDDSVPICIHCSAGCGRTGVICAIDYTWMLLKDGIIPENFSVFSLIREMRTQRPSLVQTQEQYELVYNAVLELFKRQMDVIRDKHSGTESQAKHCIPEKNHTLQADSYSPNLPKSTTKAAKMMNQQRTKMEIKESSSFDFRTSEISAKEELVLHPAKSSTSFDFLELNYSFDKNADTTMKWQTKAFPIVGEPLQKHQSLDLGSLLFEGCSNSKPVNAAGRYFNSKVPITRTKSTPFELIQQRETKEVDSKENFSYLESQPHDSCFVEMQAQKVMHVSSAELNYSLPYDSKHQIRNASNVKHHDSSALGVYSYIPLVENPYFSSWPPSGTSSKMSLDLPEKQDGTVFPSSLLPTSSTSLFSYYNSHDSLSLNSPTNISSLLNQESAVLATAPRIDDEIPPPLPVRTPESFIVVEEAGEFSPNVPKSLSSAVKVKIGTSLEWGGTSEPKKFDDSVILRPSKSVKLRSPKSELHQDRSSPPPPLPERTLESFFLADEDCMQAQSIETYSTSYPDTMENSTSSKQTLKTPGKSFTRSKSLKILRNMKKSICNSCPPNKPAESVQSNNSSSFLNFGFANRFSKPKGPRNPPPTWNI

[9] = biological target: T2, Tyrosine-protein phosphatase non-receptor type 7 (Homo sapiens, UniProt P35236); assay type: functional
T2 sequence (P35236 whole entry): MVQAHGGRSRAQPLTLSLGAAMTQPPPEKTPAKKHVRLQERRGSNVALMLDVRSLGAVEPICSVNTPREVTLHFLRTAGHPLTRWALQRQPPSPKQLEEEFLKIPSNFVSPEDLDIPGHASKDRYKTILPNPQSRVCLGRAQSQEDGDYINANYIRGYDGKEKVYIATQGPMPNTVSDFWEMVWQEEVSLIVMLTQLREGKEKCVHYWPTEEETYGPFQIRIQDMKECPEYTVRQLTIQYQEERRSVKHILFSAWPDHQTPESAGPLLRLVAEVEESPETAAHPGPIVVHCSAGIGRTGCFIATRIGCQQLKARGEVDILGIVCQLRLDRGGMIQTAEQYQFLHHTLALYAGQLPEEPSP

[10] = biological target: T1, Tyrosine-protein phosphatase non-receptor type 22; assay type: functional; remark: listed apart in the source
[11] = biological target: T3, RNA-editing ligase 1, mitochondrial (Trypanosoma brucei brucei, UniProt P86926); assay: inhibition of trypanosome RNA editing ligase – biochemical, fluorescence, Trypanosoma brucei, dose response (AID 1117295); assay type: functional
T3 sequence (P86926 whole entry): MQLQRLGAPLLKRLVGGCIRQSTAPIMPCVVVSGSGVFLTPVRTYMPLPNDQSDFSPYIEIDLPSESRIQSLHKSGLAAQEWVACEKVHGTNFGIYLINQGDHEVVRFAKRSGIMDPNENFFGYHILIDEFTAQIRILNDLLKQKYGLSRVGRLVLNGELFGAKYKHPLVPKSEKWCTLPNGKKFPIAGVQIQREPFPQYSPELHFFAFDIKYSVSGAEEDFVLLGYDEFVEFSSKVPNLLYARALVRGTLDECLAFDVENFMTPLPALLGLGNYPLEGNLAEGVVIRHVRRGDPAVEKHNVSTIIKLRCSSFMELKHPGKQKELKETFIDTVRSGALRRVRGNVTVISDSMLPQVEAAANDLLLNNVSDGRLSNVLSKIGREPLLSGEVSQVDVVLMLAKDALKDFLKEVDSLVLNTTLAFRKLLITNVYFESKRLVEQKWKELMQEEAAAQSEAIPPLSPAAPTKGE

[12] = biological target: T4, Kappa-type opioid receptor (Homo sapiens, UniProt P41145); assay type: functional
[13] = biological target: T5, Ubiquitin-conjugating enzyme E2 N (Homo sapiens, UniProt P61088); assay type: functional
T5 sequence (P61088 whole entry): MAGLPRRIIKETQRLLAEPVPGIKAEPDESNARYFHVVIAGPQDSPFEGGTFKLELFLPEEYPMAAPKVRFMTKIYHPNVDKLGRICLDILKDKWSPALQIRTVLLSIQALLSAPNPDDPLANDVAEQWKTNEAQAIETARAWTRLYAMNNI

[14] = biological target: Beta-galactosidase (Escherichia coli, UniProt Q8VNN2); assay type: functional
[15] = biological target: T4, Kappa-type opioid receptor; assay type: functional; remark: listed apart in the source
[16] = biological target: Mu-type opioid receptor (Homo sapiens, UniProt P35372); assay: HTS Image-Based Screen for Agonists of the MOR Receptor. [Related pubchem assays (depositor defined):AID1777, AID1785, AID1786, AID2133]; assay type: functional;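 also: imaging of beta-arrestin GFP recruitment into spots after receptor activation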
[17] = tested on: Vero; assay: cells; assay type: functional; conditions: Chlorocebus sabaeus
[18] = biological target: T6, Delta-type opioid receptor (Homo sapiens, UniProt P41143); assay: HTS Image-Based Screen for Antagonists of the DOR Receptor. [Related pubchem assays (depositor defined):AID1777, AID1785, AID1786, AID2133]; assay type: functional
[19] = biological target: T6, Delta-type opioid receptor; assay: HTS Image-Based Screen for Agonists of the DOR Receptor. [Related pubchem assays (depositor defined):AID1777, AID1786, AID2133]; assay type: functional
[20] = biological target: T7, Bcl-2-related protein A1 (Mus musculus, UniProt Q07440); assay type: functional;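 also: confirmatory dose–response counterscreen on Bfl-1, used to check hits from a UBC13 polyubiquitin inhibitor campaign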
T7 sequence (Q07440 whole entry): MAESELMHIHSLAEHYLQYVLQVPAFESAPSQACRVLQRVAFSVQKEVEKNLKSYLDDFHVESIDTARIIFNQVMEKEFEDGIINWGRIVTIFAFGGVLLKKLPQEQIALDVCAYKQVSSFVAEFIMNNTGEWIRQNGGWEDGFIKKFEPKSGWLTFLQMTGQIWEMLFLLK

[21] = biological target: T5, Ubiquitin-conjugating enzyme E2 N; assay type: functional; remark: listed apart in the source

T6 sequence (P41143 whole entry): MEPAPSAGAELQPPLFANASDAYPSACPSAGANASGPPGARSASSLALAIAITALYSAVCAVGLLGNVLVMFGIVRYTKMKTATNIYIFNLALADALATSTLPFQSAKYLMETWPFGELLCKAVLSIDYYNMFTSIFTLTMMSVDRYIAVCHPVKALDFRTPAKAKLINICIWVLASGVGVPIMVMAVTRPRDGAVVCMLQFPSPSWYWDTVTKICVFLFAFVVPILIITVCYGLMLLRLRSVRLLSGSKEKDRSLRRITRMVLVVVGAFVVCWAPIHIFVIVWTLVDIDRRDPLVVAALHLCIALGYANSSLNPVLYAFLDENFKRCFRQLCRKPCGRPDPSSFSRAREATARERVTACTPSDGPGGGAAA
T4 sequence (P41145 whole entry): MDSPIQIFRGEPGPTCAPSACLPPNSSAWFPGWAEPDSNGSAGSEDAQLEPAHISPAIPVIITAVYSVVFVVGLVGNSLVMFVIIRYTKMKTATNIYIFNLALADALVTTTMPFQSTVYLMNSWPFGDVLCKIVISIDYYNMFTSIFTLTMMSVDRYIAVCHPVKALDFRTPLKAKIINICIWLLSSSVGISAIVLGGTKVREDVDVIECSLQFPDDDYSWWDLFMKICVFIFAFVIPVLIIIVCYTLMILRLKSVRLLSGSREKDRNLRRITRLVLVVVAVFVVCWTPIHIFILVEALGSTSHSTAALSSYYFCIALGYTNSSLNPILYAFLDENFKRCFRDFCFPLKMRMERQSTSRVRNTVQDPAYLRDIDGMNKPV
Beta-galactosidase, sequence (Q8VNN2 whole entry): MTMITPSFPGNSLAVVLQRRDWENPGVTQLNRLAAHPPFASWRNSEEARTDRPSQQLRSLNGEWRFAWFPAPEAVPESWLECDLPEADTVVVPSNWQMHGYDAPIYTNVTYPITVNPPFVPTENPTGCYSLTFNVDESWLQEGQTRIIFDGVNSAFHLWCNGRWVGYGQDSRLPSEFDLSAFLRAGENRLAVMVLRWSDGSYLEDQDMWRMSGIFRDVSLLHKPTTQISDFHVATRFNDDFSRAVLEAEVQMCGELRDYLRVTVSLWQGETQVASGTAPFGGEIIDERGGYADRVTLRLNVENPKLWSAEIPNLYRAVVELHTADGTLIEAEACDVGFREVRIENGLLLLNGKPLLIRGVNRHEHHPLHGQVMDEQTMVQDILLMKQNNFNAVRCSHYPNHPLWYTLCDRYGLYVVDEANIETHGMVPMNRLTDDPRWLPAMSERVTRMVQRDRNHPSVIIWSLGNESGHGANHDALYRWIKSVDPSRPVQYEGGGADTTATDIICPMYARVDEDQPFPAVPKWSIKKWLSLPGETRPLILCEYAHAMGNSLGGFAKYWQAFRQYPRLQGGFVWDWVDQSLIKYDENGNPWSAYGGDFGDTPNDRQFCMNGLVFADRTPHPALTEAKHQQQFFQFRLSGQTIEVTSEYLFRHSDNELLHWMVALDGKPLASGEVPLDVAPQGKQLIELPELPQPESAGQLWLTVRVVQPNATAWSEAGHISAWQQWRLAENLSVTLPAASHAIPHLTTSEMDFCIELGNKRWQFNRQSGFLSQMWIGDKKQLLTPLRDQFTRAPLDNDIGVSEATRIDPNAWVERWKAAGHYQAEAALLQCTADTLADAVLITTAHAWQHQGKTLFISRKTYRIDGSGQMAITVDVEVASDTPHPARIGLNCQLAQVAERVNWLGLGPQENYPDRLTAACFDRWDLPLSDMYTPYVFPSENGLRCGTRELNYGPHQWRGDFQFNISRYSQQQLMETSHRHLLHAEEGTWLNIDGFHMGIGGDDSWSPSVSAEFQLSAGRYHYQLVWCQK
Mu-type opioid receptor, sequence (P35372 whole entry): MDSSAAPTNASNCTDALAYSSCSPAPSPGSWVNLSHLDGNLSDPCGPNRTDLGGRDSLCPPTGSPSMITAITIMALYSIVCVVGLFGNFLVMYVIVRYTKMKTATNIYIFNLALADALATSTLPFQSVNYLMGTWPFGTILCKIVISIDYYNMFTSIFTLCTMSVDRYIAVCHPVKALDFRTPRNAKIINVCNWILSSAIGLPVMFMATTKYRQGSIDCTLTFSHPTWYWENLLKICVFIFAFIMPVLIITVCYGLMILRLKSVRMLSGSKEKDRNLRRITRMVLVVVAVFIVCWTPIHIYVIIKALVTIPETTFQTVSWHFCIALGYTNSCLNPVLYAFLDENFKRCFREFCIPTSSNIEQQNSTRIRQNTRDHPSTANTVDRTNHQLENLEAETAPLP

## Cc1ccc(C)c(NS(=O)(=O)c2ccc(-c3cnc(C4CC4)o3)cc2)c1
[1]
  EC50: 0.298 µM (active)
[2]
  EC50: < 0.12 µM (active)
[3]
  EC50: 0.15 µM (active)
[4]
  EC50: < 0.104 µM (active)
[5]
  AC50: < 0.16 µM (active)
[6]
  IC50: 54 µM (inactive)
[7]
  AC50: 8.44 µM (inconclusive)

## O=C1OC(c2ccc(Br)cc2)=N/C1=C\c1ccco1
[8]
  IC50: > 79.4 µM (inactive)
[9]
  IC50: > 79.4 µM (inactive)
[10]
  IC50: > 79.4 µM (inactive)

## COc1ccc(C[C@H]2CN3C(=NC[C@@H]3C(C)C)N2C[C@H](C)NC(=O)c2ccc(C)c(Br)c2)cc1
[11]
  IC50: > 96.6 µM (inactive)
[12]
  IC50: 6.35 µM (active)
[13]
  IC50: > 20 µM (inactive)
[14]
  EC50: > 31.5 µM (inactive)
[15]
  IC50: 2.07 µM
[16]
  EC50: > 32 µM (inactive)
[17]
  CC50: 16.3 µM (active)
[18]
  IC50: > 32 µM (inactive)
[19]
  EC50: > 32 µM (inactive)

## COc1ccccc1NC(=O)c1cc(S(=O)(=O)N2CCCCCC2)ccc1F
[13]
  IC50: 10.6 µM (active)
[20]
  IC50: > 20 µM (inactive)
[21]
  IC50: 9.99 µM (active)
